Patent US20230123334A1, “AMINO LIPID COMPOUND, PREPARATION METHOD THEREFOR, AND APPLICATION THEREOF” (SHENZHEN SHENXIN BIOTECHNOLOGY CO., LTD., priority 2020, published 2023)

How the values were obtained:
HEK293 cells [1] = test: Preliminary screening as mRNA vectors, EGFP mRNA transfection of HEK293 cells; assay type: cell-based; conditions: HEK293 cells, 96-well plates, EGFP mRNA 50 ng per well; percentage of GFP fluorescent cells relative to total number of cells (Hoechst)
Outline: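 Screening format: EGFP mRNA transfection (50 ng/well) into HEK293 in 10% FBS-supplemented DMEM. Percent green fluorescent cells, normalised to Hoechst nuclear count, gave the value; Lipofectamine2000 was the reference transfectant.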

HEK293 cells [2] = test: Preliminary screening as DNA vectors, GFP transfection of HEK293 cells; assay type: cell-based; conditions: HEK293 cells; lipid/DOPE liposome with 75 ng plasmid DNA (psin-EGFP-IRES-Puro); number of cells expressing GFP divided by total number of nuclei (Hoechst)
Outline: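 First, amino lipid and DOPE were vortexed in sodium acetate buffer (pH 5.6) to form liposomes. Next, these were held with 75 ng EGFP plasmid at room temperature for 30 min. Finally, HEK293 cells were added, cultured at 37° C., Hoechst-stained, and GFP+/total nuclei scored by imaging.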

SMILES	Absolute mRNA transfection efficiency in HEK293 cells (HEK293 cells [1])	Absolute DNA transfection efficiency in HEK293 cells (HEK293 cells [2])
CCCCCCCCCCCSc1nc(NCCN2CCN(C)CC2)nc(SCCCCCCCCCCC)n1 [Compound S11S11D5]	28.7%	3.4%
CCCCCCCCCCCSc1nc(NCCCN(C)C)nc(SCCCCCCCCCCC)n1 [Compound S11S11D6]	25.4%	10.9%
CCCCCCCCCCCSc1nc(NCCN(CC)CC)nc(SCCCCCCCCCCC)n1 [Compound S11S11D7]	0.0%	0.0%
CCCCCCCCCCCSc1nc(NCCCN2CCOCC2)nc(SCCCCCCCCCCC)n1 [Compound S11S11D8]	1.4%	3.6%
CCCCCCCCCCCSc1nc(NCCCN2CCN(C)CC2)nc(SCCCCCCCCCCC)n1 [Compound S11S11D9]	8.0%	4.3%
CCCCCCCCCCCSc1nc(NCC2CCN(C)CC2)nc(SCCCCCCCCCCC)n1 [Compound S11S11D10]	13.7%	12.2%
CCCCCCCCCCCCSc1nc(NCCN(C)C)nc(SCCCCCCCCCCC)n1 [Compound S11S12D1]	4.7%	2.3%
CCCCCCCCCCCCSc1nc(NCCN2CCOCC2)nc(SCCCCCCCCCCC)n1 [Compound S11S12D2]	0.0%	0.1%
CCCCCCCCCCCCSc1nc(NCCN2CCCC2)nc(SCCCCCCCCCCC)n1 [Compound S11S12D3]	3.2%	5.4%
CCCCCCCCCCCCSc1nc(NCCN2CCCCC2)nc(SCCCCCCCCCCC)n1 [Compound S11S12D4]	0.4%	5.6%
CCCCCCCCCCCCSc1nc(NCCN2CCN(C)CC2)nc(SCCCCCCCCCCC)n1 [Compound S11S12D5]	9.2%	2.8%
CCCCCCCCCCCCSc1nc(NCCCN(C)C)nc(SCCCCCCCCCCC)n1 [Compound S11S12D6]	21.5%	5.2%
CCCCCCCCCCCCSc1nc(NCCN(CC)CC)nc(SCCCCCCCCCCC)n1 [Compound S11S12D7]	0.4%	3.1%
CCCCCCCCCCCCSc1nc(NCCCN2CCN(C)CC2)nc(SCCCCCCCCCCC)n1 [Compound S11S12D9]	4.2%	2.4%
CCCCCCCCCCCCSc1nc(NCC2CCN(C)CC2)nc(SCCCCCCCCCCC)n1 [Compound S11S12D10]	10.5%	4.8%
CCCCCCCCCCCCCCSc1nc(NCCN(C)C)nc(SCCCCCCCCCCC)n1 [Compound S11S14D1]	1.9%	2.0%
CCCCCCCCCCCCCCSc1nc(NCCN2CCOCC2)nc(SCCCCCCCCCCC)n1 [Compound S11S14D2]	0.0%	0.7%
CCCCCCCCCCCCCCSc1nc(NCCN2CCCC2)nc(SCCCCCCCCCCC)n1 [Compound S11S14D3]	17.9%	6.7%
CCCCCCCCCCCCCCSc1nc(NCCN2CCCCC2)nc(SCCCCCCCCCCC)n1 [Compound S11S14D4]	0.2%	3.7%
CCCCCCCCCCCCCCSc1nc(NCCN2CCN(C)CC2)nc(SCCCCCCCCCCC)n1 [Compound S11S14D5]	9.1%	5.1%
CCCCCCCCCCCCCCSc1nc(NCCCN(C)C)nc(SCCCCCCCCCCC)n1 [Compound S11S14D6]	30.0%	6.6%
CCCCCCCCCCCCCCSc1nc(NCCN(CC)CC)nc(SCCCCCCCCCCC)n1 [Compound S11S14D7]	0.7%	2.9%
CCCCCCCCCCCCCCSc1nc(NCCCN2CCOCC2)nc(SCCCCCCCCCCC)n1 [Compound S11S14D8]	4.2%	8.8%
CCCCCCCCCCCCCCSc1nc(NCCCN2CCN(C)CC2)nc(SCCCCCCCCCCC)n1 [Compound S11S14D9]	9.9%	4.1%

SMILES	Absolute mRNA transfection efficiency in HEK293 cells (HEK293 cells [1])	Absolute DNA transfection efficiency in HEK293 cells (HEK293 cells [2])
CCCCCCCCCCCCCCSc1nc(NCC2CCN(C)CC2)nc(SCCCCCCCCCCC)n1 [Compound S11S14D10]	38.5%	58.1%
CCCCCCCCCCCCCCCSc1nc(NCCN(C)C)nc(SCCCCCCCCCCC)n1 [Compound S11S15D1]	0.0%	0.9%
CCCCCCCCCCCCCCCSc1nc(NCCN2CCOCC2)nc(SCCCCCCCCCCC)n1 [Compound S11S15D2]	0.0%	0.3%
CCCCCCCCCCCCCCCSc1nc(NCCN2CCCC2)nc(SCCCCCCCCCCC)n1 [Compound S11S15D3]	5.3%	7.4%
CCCCCCCCCCCCCCCSc1nc(NCCN2CCCCC2)nc(SCCCCCCCCCCC)n1 [Compound S11S15D4]	0.9%	5.3%
CCCCCCCCCCCCCCCSc1nc(NCCN2CCN(C)CC2)nc(SCCCCCCCCCCC)n1 [Compound S11S15D5]	17.4%	4.8%
CCCCCCCCCCCCCCCSc1nc(NCCCN(C)C)nc(SCCCCCCCCCCC)n1 [Compound S11S15D6]	15.4%	4.8%
CCCCCCCCCCCCCCCSc1nc(NCCN(CC)CC)nc(SCCCCCCCCCCC)n1 [Compound S11S15D7]	0.7%	5.3%
CCCCCCCCCCCCCCCSc1nc(NCCCN2CCOCC2)nc(SCCCCCCCCCCC)n1 [Compound S11S15D8]	2.1%	3.0%
CCCCCCCCCCCCCCCSc1nc(NCCCN2CCN(C)CC2)nc(SCCCCCCCCCCC)n1 [Compound S11S15D9]	3.6%	1.8%
CCCCCCCCCCCCCCCSc1nc(NCC2CCN(C)CC2)nc(SCCCCCCCCCCC)n1 [Compound S11S15D10]	75.9%	42.3%
CCCCCCCCCCCCCCCCSc1nc(NCCN(C)C)nc(SCCCCCCCCCCC)n1 [Compound S11S16D1]	2.4%	0.5%
CCCCCCCCCCCCCCCCSc1nc(NCCN2CCOCC2)nc(SCCCCCCCCCCC)n1 [Compound S11S16D2]	0.1%	0.0%
CCCCCCCCCCCCCCCCSc1nc(NCCN2CCCC2)nc(SCCCCCCCCCCC)n1 [Compound S11S16D3]	0.7%	6.2%
CCCCCCCCCCCCCCCCSc1nc(NCCN2CCCCC2)nc(SCCCCCCCCCCC)n1 [Compound S11S16D4]	0.2%	1.7%
CCCCCCCCCCCCCCCCSc1nc(NCCN2CCN(C)CC2)nc(SCCCCCCCCCCC)n1 [Compound S11S16D5]	5.1%	4.9%
CCCCCCCCCCCCCCCCSc1nc(NCCCN(C)C)nc(SCCCCCCCCCCC)n1 [Compound S11S16D6]	9.3%	2.7%
CCCCCCCCCCCCCCCCSc1nc(NCCN(CC)CC)nc(SCCCCCCCCCCC)n1 [Compound S11S16D7]	0.5%	2.2%
CCCCCCCCCCCCCCCCSc1nc(NCCCN2CCOCC2)nc(SCCCCCCCCCCC)n1 [Compound S11S16D8]	0.9%	4.7%
CCCCCCCCCCCCCCCCSc1nc(NCCCN2CCN(C)CC2)nc(SCCCCCCCCCCC)n1 [Compound S11S16D9]	16.4%	3.6%
CCCCCCCCCCCCCCCCSc1nc(NCC2CCN(C)CC2)nc(SCCCCCCCCCCC)n1 [Compound S11S16D10]	89.2%	49.0%
CCCCCCCCCCCCCCCCCCSc1nc(NCCN(C)C)nc(SCCCCCCCCCCC)n1 [Compound S11S18D1]	2.7%	0.6%
CCCCCCCCCCCCCCCCCCSc1nc(NCCN2CCOCC2)nc(SCCCCCCCCCCC)n1 [Compound S11S18D2]	0.1%	0.2%
